Series [1] in a line: NEF-105 study: budesonide plasma pharmacokinetics. Type of series: in vivo. As to conditions: human, po.
The next series relates to patients with IgAN. As to conditions: TESTING trial, at 3 months, diminishing over time; cited from earlier work.

Data on 2 compounds can be found in paper PMC11298173 (Drug Design, Development and Therapy, 2024).

The structures appear in SMILES notation.

For orientation: half-life means the time needed for the level to fall by half in the phase considered.

Take `CCCC1O[C@@H]2C[C@H]3[C@@H]4CCC5=CC(=O)C=C[C@]5(C)[C@H]4[C@@H](O)C[C@]3(C)[C@]2(C(=O)CO)O1` (some centres unmarked) [budesonide]: in series [1], the half-life is about 5 h.

As to `C[C@H]1C[C@@H]2[C@H]([C@@H](O)C[C@@]3(C)[C@H]2CC[C@]3(O)C(=O)CO)[C@@]2(C)C=CC(=O)C=C12` [methylprednisolone], the “Effect on proteinuria vs placebo” value with patients with IgAN is given as “substantial effect”.
